# Laboratory results as given in patent publication EP3131902B1, “COMPOUNDS AS MODULATORS OF ROR GAMMA” (Boehringer Ingelheim International GmbH, priority 2014, dated 2015).
# Molecular target: T1, RORγ (Homo sapiens, UniProt P51449)
# T1 construct: expressed in transfected cells; host or cells: HEK 293 cells, transiently transfected
# T1 sequence (P51449 269-508 limits assumed): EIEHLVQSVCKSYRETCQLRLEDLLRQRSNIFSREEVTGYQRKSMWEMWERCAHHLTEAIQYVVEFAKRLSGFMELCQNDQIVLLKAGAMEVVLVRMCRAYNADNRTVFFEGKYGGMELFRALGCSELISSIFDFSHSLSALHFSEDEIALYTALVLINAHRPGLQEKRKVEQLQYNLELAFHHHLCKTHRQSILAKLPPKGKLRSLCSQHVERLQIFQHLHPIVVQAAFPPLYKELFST
# Assay: Reporter Gene Assay (RGA): nuclear receptor transactivation assay, inhibition of RORγ transactivation of a luciferase reporter in transiently transfected HEK 293 cells
# Format: cell-based
# Conditions: not given
row,SMILES,IC50 [nM]
1,CCS(=O)(=O)c1ccc(CNc2nc3cnc(-c4c(C5CC5)ncnc4C4CC4)nc3n(C3CC3)c2=O)cc1 [Example 38],1100
2,CCS(=O)(=O)c1ccc(CNc2nc3cnc(-c4c(OC)ncnc4C4CC4)nc3n(CC(C)(C)F)c2=O)nc1 [Example 106],1150
3,CC[C@H](C)n1c(=O)c(NCc2ccc(S(N)(=O)=O)cn2)nc2cnc(-c3c(OC)ncnc3C3CC3)nc21 [Example 122],150
4,CCS(=O)(=O)N1C[C@@H]2C(CNc3nc4cnc(-c5c(C)ncnc5C5CC5)nc4n([C@@H](C)C4CC4)c3=O)[C@@H]2C1 (stereo partly drawn) [Example 163],160
5,CCS(=O)(=O)c1ccc(CNc2nc3cnc(-c4c(C)ncnc4C4CC4)nc3n([C@@H](C)C(F)(F)F)c2=O)cc1 [Example 177],73

# Same assay, conditions: read-out: RGA IC50
row,SMILES,IC50 [nM]
1,CCS(=O)(=O)c1ccc(CNc2nc3cnc(-c4c(OC)ncnc4C4CC4)nc3n([C@H]3C[C@@H]3C(F)(F)F)c2=O)nc1 (stereo in doubt) [Example 110],1350
2,CCC(C)n1c(=O)c(NCc2ccc(S(C)(=O)=O)cc2)nc2cnc(-c3c(C)ncnc3C3CC3)nc21 (stereo not drawn) [Example 14],310
3,CCC(CC)n1c(=O)c(NCc2ccc(S(=O)(=O)CC)cn2)nc2cnc(-c3c(C4CC4)ncnc3C3CC3)nc21 [Example 16],320
4,CC[C@H](C)n1c(=O)c(NCc2ccc(S(=O)(=O)CC)cn2)nc2cnc(-c3c(C)ncnc3C3CC3)nc21 [Example 20],330
5,CCS(=O)(=O)c1ccc(CNc2nc3cnc(-c4c(C5CC5)ncnc4C4CC4)nc3n([C@H](C)C(C)C)c2=O)nc1 [Example 25],410
6,CCC(C)n1c(=O)c(NCc2ccc(S(C)(=O)=O)cc2)nc2cnc(-c3c(OC)ncnc3C3CC3)nc21 (stereo not drawn) [Example 26],420
7,CCS(=O)(=O)c1ccc(CNc2nc3cnc(-c4c(OC)ncnc4C4CC4)nc3n(C3(C)CC3(F)F)c2=O)nc1 (stereo not drawn) [Example 36],880
8,CCS(=O)(=O)c1ccc(CNc2nc3cnc(-c4c(OC)ncnc4C4CC4)nc3n(C3CC3)c2=O)cc1 [Example 43],2600
9,CS(=O)(=O)c1ccc(CNc2nc3cnc(-c4c(C5CC5)ncnc4C4CC4)nc3n(C3CC3)c2=O)cc1 [Example 46],3000
10,CCS(=O)(=O)c1ccc(CNc2nc3cnc(-c4c(C)ncnc4C4CC4)nc3n(-c3ccccc3)c2=O)nc1 [Example 48],3800
11,CCS(=O)(=O)c1ccc(CNc2nc3cnc(-c4c(OC)ncnc4C4CC4)nc3n(C3(C#N)CC3)c2=O)nc1 [Example 50],4400
12,CCS(=O)(=O)c1ccc(CNc2nc3cnc(-c4c(C5CC5)ncnc4C4CC4)nc3n(C3CC3)c2=O)cn1 [Example 51],7600
13,CC[C@H](C)n1c(=O)c(NCc2ccc(S(=O)(=O)CC)cn2)nc2cnc(-c3c(C)ncnc3C(F)(F)F)nc21 [Example 58],420
14,CCS(=O)(=O)c1ccc(CNc2nc3cnc(-c4c(C)ncnc4C4CC4)nc3n([C@@H](C)C(C)C)c2=O)nc1 [Example 66],410
15,CCS(=O)(=O)c1ccc(CNc2nc3cnc(-c4c(C)ncnc4C4CC4)nc3n([C@H](C)C(C)C)c2=O)nc1 [Example 67],370
16,CCS(=O)(=O)N1CCC(CNc2nc3cnc(-c4c(OC)ncnc4C4CC4)nc3n([C@H](C)C3CC3)c2=O)CC1 [Example 76],1600
17,CC[C@@H](C)n1c(=O)c(NCc2ccc(S(=O)(=O)CC)cn2)nc2cnc(-c3c(C)ncnc3C3CC3)nc21 [Example 84],400

row,SMILES,IC50 [nM]
1,CCS(=O)(=O)c1ccc(CNc2nc3cnc(-c4c(C)ncnc4C4CC4)nc3n(CC(C)(C)F)c2=O)nc1 [Example 105],1600
2,CCS(=O)(=O)c1ccc(CNc2nc3cnc(-c4c(OC)ncnc4C4CC4)nc3n([C@H]3CCC[C@@H]3C#N)c2=O)nc1 [Example 109],790
3,CCS(=O)(=O)c1ccc(CNc2nc3cnc(-c4c(C)ncnc4C4CC4)nc3n([C@H]3CCC[C@H]3C#N)c2=O)nc1 [Example 111],460
4,CCS(=O)(=O)c1ccc(CNc2nc3cnc(-c4c(C)ncnc4C4CC4)nc3n([C@H]3CCC[C@@H]3C#N)c2=O)nc1 [Example 112],920
5,COc1ncnc(C2CC2)c1-c1ncc2nc(NCc3ccc(S(N)(=O)=O)cn3)c(=O)n(CC3CCC3)c2n1 [Example 116],300
6,CCS(=O)(=O)c1ccc(CNc2nc3cnc(-c4c(C)ncnc4C4CC4)nc3n(C3CCCC3=O)c2=O)nc1 (stereo not drawn) [Example 119],720
7,CCS(=O)(=O)c1ccc(CNc2nc3cnc(-c4c(OC)ncnc4C4CC4)nc3n(C3CCCC3=O)c2=O)nc1 (stereo not drawn) [Example 120],420
8,CC[C@@H](C)n1c(=O)c(NCc2ccc(S(N)(=O)=O)cn2)nc2cnc(-c3c(C)nc(N)nc3C3CC3)nc21 [Example 129],2500
9,COc1cc(C#N)ccc1CNc1nc2cnc(-c3c(C)ncnc3C3CC3)nc2n([C@@H](C)C2CC2)c1=O [Example 133],1040
10,CCS(=O)(=O)c1ccc(CNc2nc3cnc(-c4cnc(N)nc4C(C)C)nc3n(C(C)C)c2=O)nc1 [Example 140],730
11,COc1ncnc(C2CC2)c1-c1ncc2nc(NCc3ccc(S(C)(=O)=O)cn3)c(=O)n(C(C)C)c2n1 [Example 149],305
12,CCS(=O)(=O)N1CC2(CC(CNc3nc4cnc(-c5c(OC)ncnc5C5CC5)nc4n([C@@H](C)C4CC4)c3=O)C2)C1 [Example 152],470
13,CC(=O)N1CCC(CNc2nc3cnc(-c4c(C)ncnc4C4CC4)nc3n([C@@H](C)C3CC3)c2=O)CC1 [Example 166],1600
14,CCCc1ncnc(C)c1-c1ncc2nc(NCc3ccc(S(=O)(=O)CC)cn3)c(=O)n(C(C)C)c2n1 [Example 172],440
15,CCc1ncnc(C2CC2)c1-c1ncc2nc(NCc3ccc(S(=O)(=O)CC)cc3)c(=O)n([C@H]3CCOC3)c2n1 [Example 175],380
16,CCS(=O)(=O)c1cnc(CNc2nc3cnc(-c4c(C)ncnc4C4CC4)nc3n([C@@H](C)C(F)(F)F)c2=O)nc1 [Example 188],315

# Continued, values first:
row,IC50 [nM],SMILES
1,300,CCS(=O)(=O)c1ccc(CNc2nc3cnc(-c4c(C5CC5)ncnc4C4CC4)nc3n(C3CCCC3)c2=O)nc1 [Example 13]
2,300,CCS(=O)(=O)c1ccc(CNc2nc3cnc(-c4c(OC)ncnc4C4CC4)nc3n([C@H]3CCC[C@H]3C#N)c2=O)nc1 [Example 108]
3,295,CCS(=O)(=O)c1ccc(CNc2nc3cnc(-c4c(OC)ncnc4C4CC4)nc3n(CC(C)C)c2=O)cn1 [Example 154]
4,295,CC[C@@H](C)n1c(=O)c(NCc2ncc(S(=O)(=O)CC)cn2)nc2cnc(-c3c(OC)ncnc3C3CC3)nc21 [Example 184]
5,290,CCS(=O)(=O)c1ccc(CNc2nc3cnc(-c4c(C5CC5)ncnc4C4CC4)nc3n([C@@H](C)C3CC3)c2=O)nc1 [Example 73]
6,285,CCS(=O)(=O)N1CCC(CNc2nc3cnc(-c4c(C)ncnc4C4CC4)nc3n(C(C)C)c2=O)CC1 [Example 130]
7,285,Cc1ncnc(C2CC2)c1-c1ncc2nc(NCc3ccc(S(C)(=N)=O)cc3)c(=O)n([C@@H](C)C3CC3)c2n1 (stereo partly drawn) [Example 160]
8,280,CCS(=O)(=O)c1ccc(CNc2nc3cnc(-c4c(C5CC5)ncnc4C4CC4)nc3n([C@@H](C)C(C)C)c2=O)nc1 [Example 7]
9,275,CCS(=O)(=O)c1ccc(CNc2nc3cnc(-c4c(C5CC5)ncnc4C4CC4)nc3n([C@H]3CCOC3)c2=O)cc1 [Example 174]
10,255,COc1ncnc(C2CC2)c1-c1ncc2nc(NCc3ccc(S(N)(=O)=O)cc3)c(=O)n(C(C)C)c2n1 [Example 151]
11,255,CCS(=O)(=O)c1cnc(CNc2nc3cnc(-c4c(OC)ncnc4C4CC4)nc3n([C@@H](C)C(F)(F)F)c2=O)nc1 [Example 187]
12,240,CNS(=O)(=O)c1ccc(CNc2nc3cnc(-c4c(C)ncnc4C4CC4)nc3n([C@@H](C)C3CC3)c2=O)cc1 [Example 135]
13,240,CCS(=O)(=O)c1ccc(CNc2nc3cnc(-c4c(C)ncnc4C(C)C)nc3n(C(C)C)c2=O)nc1 [Example 178]
14,230,CCc1ncnc(C2CC2)c1-c1ncc2nc(NCc3ccc(S(=O)(=O)CC)cn3)c(=O)n(C3CCCC3)c2n1 [Example 3]
15,205,CCS(=O)(=O)N1CCC(CNc2nc3cnc(-c4c(OC)ncnc4C4CC4)nc3n(C(C)C)c2=O)CC1 [Example 131]
16,200,Cc1ncnc(C2CC2)c1-c1ncc2nc(NCc3ccc(S(=O)(=O)CC#N)cc3)c(=O)n(C(C)C)c2n1 [Example 171]
17,195,CC[C@H](C)n1c(=O)c(NCc2ccc(S(N)(=O)=O)cn2)nc2cnc(-c3c(C)ncnc3C3CC3)nc21 [Example 98]
18,185,CNS(=O)(=O)c1ccc(CNc2nc3cnc(-c4c(OC)ncnc4C4CC4)nc3n(C(C)C)c2=O)nc1 [Example 155]
19,175,COc1ncnc(C2CC2)c1-c1ncc2nc(NCc3ccc(S(C)(=O)=O)cn3)c(=O)n([C@@H](C)C(F)(F)F)c2n1 [Example 181]
20,157,Cc1ncnc(C2CC2)c1-c1ncc2nc(NCC3CCN(S(=O)(=O)CC#N)CC3)c(=O)n([C@@H](C)C3CC3)c2n1 [Example 165]
21,150,CC[C@@H](C)n1c(=O)c(NCc2ncc(S(=O)(=O)CC)cn2)nc2cnc(-c3c(C4CC4)ncnc3C3CC3)nc21 [Example 186]
22,145,COCCS(=O)(=O)N1CCC(CNc2nc3cnc(-c4c(OC)ncnc4C4CC4)nc3n([C@@H](C)C3CC3)c2=O)CC1 [Example 169]
23,130,CC[C@@H](C)n1c(=O)c(NCc2ccc(S(C)(=O)=O)cc2)nc2cnc(-c3c(OC)ncnc3C3CC3)nc21 [Example 190]
24,120,CC[C@@H](C)n1c(=O)c(NCc2ccc(S(C)(=O)=O)cc2)nc2cnc(-c3c(C)ncnc3C3CC3)nc21 [Example 189]
25,107,CCS(=O)(=O)c1sc(CNc2nc3cnc(-c4c(C)ncnc4C4CC4)nc3n([C@@H](C)C3CC3)c2=O)nc1C [Example 114]
